From patent publication US6297230A, “Cyanoaziridines for treating cancer” (priority 2000, dated 2001)
Converted amounts (≈) assume the structure as drawn. “Also recorded” adds a separate entry of the source.

Assays:
Assay type in all cases: cell-based, human
[1] = tested on: A-375 malignant melanoma cells; test: In vitro antitumor activity, A-375 melanoma; conditions: Homo sapiens, read-out: IC50
From the text: (§1) 1) in vitro tumor cell viability assays using MTT and SRB dye reaction endpoints.
(§2) Sulforhodamine B (SRB) Assay for Adherent Tumor Cells
(§3) Sulforhodamine B (SRB) is a protein binding aminoxanthene dye with two sulfonic acid groups. (Lillie, R. D., H. J. Conn's Biological Stains, 9th Ed., Baltimore; Williams & Wilkins, 1977.) It quantitates whole cell protein content by the intensity of dye staining and relates this to the number of viable cells. […] The SRB assay is used for cells which normally adhere to surfaces (in this case plastic culture flasks or petri dishes) as part of their requirement for growth and division in vitro. The SRB assay is currently used by the National Cancer Institute in the anticancer drug screening program. (Skehan, et al., J Natl Cancer Inst 82:1107-1112, 1990; Rubinstein, et al., J Natl Cancer Inst 82:1113-1118, 1990.) Methodologic comparisons have shown that SRB results are linear for the number of tumor cells over a 100-fold range, and for protein content determined by a modified Lowry method or Standard Bradford (Bradford, M., Anal Biochem 72:248-254, 1976) methods. […] (Lillie, R. D., H. J. Conn's Biological Stains, 9th Ed., Baltimore; Williams & Wilkins, 1977.)
(§4) Cell cultures of 10^3 -10^7 cells growing in 96-well plastic microtiter plates are fixed with 50% trichloroacetic acid (TCA) for 30 minutes at 4° C. The cells are then stained with 0.4% (w/v) sulforhodamine B (SRB) dissolved in 1% acetic acid. Unbound dye is removed by 4 washes with 1% acetic acid, and protein-bound dye is extracted with 10 mM unbuffered Tris® base [tris(hydroxymethyl)aminomethane]. The optical density (OD) of this extracted solution is measured at […] in a microtiter plate ultraviolet absorbance detector. Cell viability is expressed as percent of control by dividing the optical densities and multiplying the result by 100.
(§5) Microculture Tetrazolium (MTT) Assay for Tumor Cells
(§6) Tumors are disaggregated into single cell suspensions using mechanical, hypoosmotic, and/or enzymatic (trypsin) methods. The cells are plated at a concentration of 3-5×10^4 per […] well into plastic 96-well plates. Growth medium containing 5-10% (vol/vol) heat-inactivated fetal bovine serum and penicillin/streptomycin (both […]) are added prior to incubation at 37° C. for 6 days. Afterwards the medium containing the drug is removed, the cells are centrifuged in fresh medium or phosphate-buffered saline (pH 7.4). A tetrazolium dye, […]-2,5-diphenyl tetrazolium (MTT), is then added. (Mossman, T., J Immunol 65:55-63, 1983.) This dye forms a colored formazan product upon activation by mitochondrial reductases in viable cells. Typically, the formazan product is solubilized in acid-propanol or DMSO. The intensity of the color is proportional to viable cell numbers and this is quantitated by spectrophotometric absorbance at 570 nm on a micro ELISA plate reader. The results are calibrated in % control absorbance from untreated tumor cells. (Alley, et al., Cancer Res 48:589-601, 1988.)
(§7) Table 3 gives the potencies of the new aziridine-1-carboxamides in a panel of human and murine tumor cells in culture. The tumor cell lines in this table are selected to represent a range of histological and growth phenotypes. Their characteristics are described below.
4.0 The Human A-375 Malignant Melanoma Cell Line was also developed by Girard, et al. (Girard, et al., J Natl Cancer Inst 51(5):1417-1423, 1973) from a human with advanced melanoma. The modal chromosome number is 67 and it has a low plating (colony forming) efficiency of 0.7% when grown on agar. These cells also form rapidly growing tumors when injected subcutaneously into immunodeficient athymic (nu/nu) mice. (Girard, et al., J Natl Cancer Inst 51(5):1417-1423, 1973.) These cells are also used in the NCI drug screening panel. (Skehan, et al., J Natl Cancer Inst 82:1107-1112, 1990.)

[2] = tested on: OVCAR-3 ovarian carcinoma cells; test: In vitro antitumor activity, OVCAR-3 ovarian; conditions: Homo sapiens, OVCAR-3; OVCAR3 ovarian; read-out: IC50
From the text: as §1, §2, §3, §4, §5, §6, §7
5.0 Human OVCAR-3 Ovarian Carcinoma was originally isolated by Hamilton, et al. Experimental model systems of ovarian cancer; applications to the design and evaluation of new treatment approaches. Seminar in Onocology, 11:285-298, 1984, from a patient with progressive adenocarcinoma of the ovary. This patient had relapsed after receiving a combination chemotherapy regimen containing cyclophosphamide, doxorubicin and cisplatin. […] It is also one of the standard human tumor cell lines used for screening new anticancer agents at the NCI. (Alley, et al., Cancer Res 48:589-601, 1988.)

8226/S myeloma cells = test: MTT growth inhibition, parental 8226 myeloma cells; conditions: for IC50: Homo sapiens, Table 5, Sensitive (parental) 8226, read-out: IC50
Protocol: as §5, §6
(§8) The following unpublished studies were performed in vitro to develop and characterize a human myeloma cell line with resistance to imexon-induced cytotoxicity. The original (parental) 8226 cell line was developed by Matsuoka, et al. (Matsuoka, et al., Proc Soc Exp Biol Med 125:1246-1250, 1967). It is a lymphoblastoid cell line which stains for lambda light immunoglobulin production. It grows in vitro in suspension culture (non-adherent) and forms tumors when injected into SCID mice. (Skehan, et al., J Natl Cancer Inst 82:1107-1112, 1990.)
(§9) One exciting feature of our novel compounds is, that they work on imexon-resistant cells. An imexon-resistant 8226 myeloma cell line was selected by continuously exposing cells to gradually increasing concentrations of imexon up to 3.25 mg/mL. This cell line has slightly longer cell doubling time than 8226 sensitive cells (24 vs 20 hours). […] The dose response curve for imexon continuous exposure was determined using MTT assay. Each data point represents the mean of three experiments performed in 8 replicates.
(§10) We compared IC50 concentrations and there is a 4-fold resistance observed for the 8226/I-R cell line when the cells were continuously exposed to imexon for […] at 37° C. The degree of resistance was relatively unstable in the absence of the drug, with the resistant cells losing substantial resistance when maintained in imexon-free medium for 20 weeks (FIG. 2).
(§11) IC50 was measured by MTT assay. IC50 refer to the concentration by drug that results in 50% growth inhibition. A minimum of 2 assays were performed for each drug following 250 mg/mL imexon is equivalent to 6.5 cGy radiation in sensitive cells.
(§12) Using the colorimetric microculture tetrazolium (MTT) assay, imexon and 25-related analogs were studied for tumor growth inhibition in vitro. Imexon-induced DNA single strand breaks were assessed by alkaline elution. Cells were exposed to imexon for 1 hour prior to start of experiment. The fraction of ^14 C-labeled DNA retained on the filter is plotted against the time of elution. The cells included parental 8226 myeloma cells and the 8226 imexon-resistant cells exposed to drug (imexon or analog) continuously for 10 days at 37° C. At the end of the exposure period, the cells were analyzed for viability using the formazan-forming tetrazolium dye (MTT) assay.

8226/I-R myeloma cells = test: MTT growth inhibition, imexon-resistant 8226 myeloma cells; conditions: for Cross-resistance with imexon: 8226 imexon-resistant vs parental; for IC50: Homo sapiens, imexon-resistant 8226, read-out: IC50; for IC50 / Fold Resistance of IC50 R/IC50 's: Table 5; for Fold Resistance of IC50 R/IC50 's: imexon-resistant vs sensitive 8226
Protocol: as §5, §6, §8, §9, §10, §11, §12

| SMILES | IC50 [1] | IC50 [2] | IC50 (8226/S myeloma cells) | Cross-resistance with imexon (8226/I-R myeloma cells) | IC50 (8226/I-R myeloma cells) | Fold Resistance of IC50 R/IC50 's (8226/I-R myeloma cells) | Enhanced potency: decrease in IC50 against myeloma cell growth (8226/S myeloma cells; compared with imexon) | Potency relative to imexon (8226/S myeloma cells; myeloma cells) |
| --- | --- | --- | --- | --- | --- | --- | --- | --- |
| CNC(=O)N1CC1C#N (stereo not drawn) [AMP 403, 2-Cyanoaziridine-1-(N-methyl)carboxamide] | 2.1 µg/mL (≈ 16.8 µM) | 1.7 µg/mL | 3.3 µg/mL (≈ 26.4 µM) | lack of significant (>50% IC50 change) cross-resistance with imexon | 3.3 µg/mL (≈ 26.4 µM) | 1.0 |  |  |
| N#CC1CN1C(=O)Nc1ccccc1 (stereo not drawn) [AMP 404, 2-Cyanoaziridine-1-(N-phenyl)carboxamide] | 2.1 µg/mL (≈ 11.2 µM) | 1.3 µg/mL | 1 µg/mL (≈ 5.34 µM) | lack of significant (>50% IC50 change) cross-resistance with imexon | 1.5 µg/mL (≈ 8.01 µM) | 1.5 |  |  |
| CCNC(=O)N1CC1C#N (stereo not drawn) [AMP 406, 2-Cyanoaziridine-1-(N-ethyl)carboxamide] | 5 µg/mL (≈ 35.9 µM) | 2 µg/mL | 3.1 µg/mL (≈ 22.3 µM) |  | 3.6 µg/mL (≈ 25.9 µM) | 1.2 |  |  |
| N#CC1CN1C(=O)Nc1ccc(Cl)cc1Cl (stereo not drawn) [AMP 407, 2-Cyanoaziridine-1-[N-(2,4-dichlorophenyl)]carboxamide] | 2 µg/mL (≈ 7.81 µM) | 0.6 µg/mL | 1.2 µg/mL (≈ 4.69 µM) |  | 2.4 µg/mL (≈ 9.37 µM) | 2.0 | > 40% |  |
| CC(C)(C)NC(=O)N1CC1C#N (stereo not drawn) [AMP 410, 2-Cyanoaziridine-1-(N-t-butyl)carboxamide] | 69.9 µg/mL (≈ 418 µM) | 31.1 µg/mL | 20 µg/mL (≈ 120 µM) |  | 36 µg/mL (≈ 215 µM) | 1.8 |  |  |
| N#CC1CN1C(=O)NCc1ccccc1 (stereo not drawn) [AMP 412, 2-Cyanoaziridine-1-(N-benzyl)carboxamide] | 2.2 µg/mL (≈ 10.9 µM) | 1 µg/mL | 1.8 µg/mL (≈ 8.95 µM) | lack of significant (>50% IC50 change) cross-resistance with imexon; also recorded: no significant cross resistance | 2.2 µg/mL (≈ 10.9 µM) | 1.2 |  | roughly equal potency to imexon |
| N#CC1CN1C(=O)NC1CCCCC1 (stereo not drawn) [AMP 413, 2-Cyanoaziridine-1-(N-cyclohexyl)carboxamide] | 6.7 µg/mL (≈ 34.7 µM) | 5.9 µg/mL | 7 µg/mL (≈ 36.2 µM) |  | 19 µg/mL (≈ 98.3 µM) |  |  |  |
